Laboratory results from patent US20240002375A1, “2-(INDAZOL-5-YL)-6-(PIPERIDIN-4-YL)-1,7-NAPHTHYRIDINE DERIVATIVES AND RELATED COMPOUNDS AS MODULATORS FOR SPLICING NUCLEIC ACIDS AND FOR THE TRE” (REMIX THERAPEUTICS INC., priority 2020, published 2024).

Experiments:
Assay type in all cases: cell-based
SMN2 CJ mRNA = test: Gene panel canonical junction qPCR splicing assay, SMN2; details: Table 4, read-out: SMN2 IC50 (decrease in CJ mRNA levels)
In short: (§1)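 A673 or K562 cells treated with compound; canonical-junction mRNA measured by RT-qPCR with junction-spanning primer/probe sets, normalized to GAPDH, GUSB or PPIA and DMSO (2^−ΔΔCt). IC50 for CJ decrease from 4-parameter logistic fit of percentage response.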

HTT CJ mRNA = test: Gene panel canonical junction qPCR splicing assay, HTT; details: Table 4, read-out: HTT IC50 (decrease in CJ mRNA levels)
In short: as §1

Target C CJ mRNA = test: Gene panel canonical junction qPCR splicing assay, Target C; details: Table 4, read-out: Target C IC50 (decrease in CJ mRNA levels)
In short: as §1

HTT mRNA = test: Splicing assay (RT-qPCR) of HTT mRNA alternative junction (AJ) and canonical junction (CJ); details: A673 or K562 cells, 24 hours; for IC50: decrease in CJ mRNA, read-out: HTT CJ IC50; for AC50: increase in AJ mRNA, read-out: HTT AJ AC50
In short: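 A673 (adherent, 24 h pre-plating) or K562 cells treated 24 h at 37 °C with an 11-point 3-fold dilution series, top 10 uM, DMSO ≤0.25%. Lysates analysed by one-step RT-qPCR for HTT canonical (CJ) and alternative-exon (AJ) junctions, normalised to PPIA (A673) or GAPDH/GUSB (K562).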

Row | IC50 (SMN2 CJ mRNA) [nM] | IC50 (HTT CJ mRNA) [nM] | IC50 (Target C CJ mRNA) [nM] | IC50 (HTT mRNA) [nM] | Compound | AC50 (HTT mRNA) [nM]
1 | < 100 | < 100 | 100 to 1000 | < 100 | Cc1nc2cc(O)c(-c3ccc4nc(N5CCC(NC6CCC6)C5)ccc4n3)cc2o1 (single isomer, unassigned) [Compound 230, 6-{6-[3-(cyclobutylamino)pyrrolidin-1-yl]-1,5-naphthyridin-2-yl}-2-methyl-1,3-benzoxazol-5-ol] | < 100
2 | < 100 | 1000 to 10000 | 1000 to 10000 | 1000 to 10000 | CN(C)C1CCN(c2ccc3nc(-c4cc5cn(C)nc5cc4O)ccc3n2)CC1 [Compound 133, 5-[6-[4-(dimethylamino)piperidin-1-yl]-1,5-naphthyridin-2-yl]-2-methylindazol-6-ol] | 1000 to 10000
3 | < 100 | > 10000 | > 10000 | > 10000 | Cc1nc2cc(O)c(-c3ccc4nc(N5CCC(NC(C)(C)C)C5)ccc4n3)cc2s1 (stereo not drawn) [Compound 190, 6-{6-[3-(tert-butylamino)pyrrolidin-1-yl]-1,5-naphthyridin-2-yl}-2-methyl-1,3-benzothiazol-5-ol; trifluoroacetic acid] | > 10000
4 | > 10000 | > 10000 | > 10000 | > 10000 | Cn1cnc2cc(-c3ccc4nc(N5CCC(NC(C)(C)C)C5)ccc4n3)c(O)cc2c1=O (stereo not drawn) [Compound 167, 7-{6-[3-(tert-butylamino)pyrrolidin-1-yl]-1,5-naphthyridin-2-yl}-6-hydroxy-3-methylquinazolin-4-one] | > 10000
5 | < 100 | < 100 | 1000 to 10000 | < 100 | Cc1nc2cc(O)c(-c3ccc4nc(N5CC[C@@H](NC(C)(C)C)C5)ccc4n3)cc2o1 [Compound 210] | < 100
6 | 100 to 1000 | 1000 to 10000 | 1000 to 10000 | 1000 to 10000 | Cn1cc2cc(-c3ccc4nc(C5CCNCC5)ccc4n3)cc(F)c2n1 [Compound 185, 2-(7-fluoro-2-methylindazol-5-yl)-6-(piperidin-4-yl)-1,5-naphthyridine] | 1000 to 10000
7 | < 100 | 100 to 1000 | 1000 to 10000 | 100 to 1000 | Cn1cc2cc(-c3ccc4nc(N5CC[C@@H](NC6COC6)C5)ccc4n3)c(O)cc2n1 [Compound 188] | 100 to 1000
8 | < 100 | < 100 | < 100 | < 100 | Cc1nc2cc(O)c(-c3ccc4nc(N5CC[C@H](NC(C)C)C5)ccc4n3)cc2o1 (single isomer, unassigned) [Compound 233, 6-{6-[3-(isopropylamino)pyrrolidin-1-yl]-1,5-naphthyridin-2-yl}-2-methyl-1,3-benzoxazol-5-ol] | < 100
9 | 1000 to 10000 | 1000 to 10000 | 1000 to 10000 | 1000 to 10000 | Cn1cc2cc(-c3ccc4nc(N5CCNC6(CC6)C5)ccc4n3)c(O)cc2n1 [Compound 121, 5-(6-[4,7-diazaspiro[2.5]octan-7-yl]-1,5-naphthyridin-2-yl)-2-methylindazol-6-ol] | 1000 to 10000
10 | < 100 | < 100 | 100 to 1000 | < 100 | C[C@H]1C[C@H](c2ccc3nc(-c4cc5cn(C)nc5cc4O)ccc3n2)CCN1 (relative stereo) [Compound 139, 2-methyl-5-[6-[(2S,4R)-2-methylpiperidin-4-yl]-1,5-naphthyridin-2-yl]indazol-6-ol] | < 100
11 | < 100 | < 100 | < 100 | < 100 | Cn1cc2cc(-c3ccc4nc(N5CC[C@H](NC(C)(C)C)C5)ccc4n3)c(O)cc2n1 [Compound 154, 5-{6-[(3S)-3-(tert-butylamino)pyrrolidin-1-yl]-1,5-naphthyridin-2-yl}-2-methylindazol-6-ol] | < 100
12 | > 10000 | > 10000 | > 10000 | > 10000 | O=C(Nc1cn[nH]c1)Nc1cc2nc(N3CCNCC3)ccc2cn1 [Compound 111, 1-[2-(piperazin-1-yl)-1,6-naphthyridin-7-yl]-3-(1H-pyrazol-4-yl)urea] | > 10000
